From patent US20100286233A1, “PERIPHERAL AND NEURAL INFLAMMATORY CROSSTALK” (University of Rochester, priority 2006, published 2010)
Read-outs that look alike come from different tables or passages of the source.

What was measured:
[1] = test system: mice; conditions: cited from earlier work
[2] = test system: μ-receptor; conditions: in vivo; cited from earlier work
[3] = molecular target: μ-receptors (Homo sapiens, UniProt P35372); conditions: cited from earlier work
[4] = molecular target: δ-receptors (Homo sapiens, UniProt P41143); conditions: cited from earlier work
[5] = molecular target: κ-receptors (Homo sapiens, UniProt P41145); conditions: cited from earlier work
[6] = test system: C2C12 cell line; experiment: C2C12 conversion to osteoblastic phenotype, alkaline phosphatase histochemistry; type: cell-based
Experimental: In vitro studies: The C2C12 cell line, an in vitro model of chondrocyte differentiation and maturation, was obtained from ATCC and cultured in DMEM plus 10% normal bovine serum for 4 days as previously described (Katagiri, T., et al. 1994). In addition, cells were treated with BMP-2 (300 ng/mL) or alternatively with BMP-2 plus PGE2 (10^−8M) or recombinant IL-1β (10 ng/mL) or butaprost (10^−8M) in the culture medium. At the end of the experiment, cells were fixed with 10% formalin. Alkaline phosphatase expression was evaluated using the BCIP/NBT histochemistry method (Vector Labs, Burlingame Calif.). Positively-stained cells were counted in 10 random 20× fields using an inverted Olympus CK41 microscope.

[7] = test system: avian mesenchymal limb bud cells; conditions: cited from earlier work
[8] = test system: growth plate; conditions: systemic injection; cited from earlier work
[9] = molecular target: mouse recombinant DOR-1 receptor (Mus musculus, UniProt P32300); conditions: cited from earlier work
[10] = test system: C57BL/6 mice; experiment: Intracisternal IL-1β injection, brain stem IHC for GFAP and CGRP; type: in vivo, mouse; conditions: 2 ng in 2 μl into the cisterna magna, two days later
Experimental: Murine IL-1β (2 ng in 2 μl of normal saline) was injected […] in the cisterna magna of deeply anesthetized C57BL/6 mice (anesthetic: ketamine 40 mg/kg IP). Two days later, the mice were sacrificed, […] transcardially with 4% paraformaldehyde in phosphate buffered saline solution and the brain stem was harvested, frozed and cut at 18 μm thick horizontal sections which were collected on glass slides. The histology slides were then analyzed by immunohistochemistry (IHC) using antibodies raised against calcitonin gene-related peptide (CGRP; […]) and glial fibrillary acidic protein (GFAP; Dako).

[11] = MOR-1 knockout mice, disruption in exon-1

Sequence of μ-receptors (P35372 whole entry): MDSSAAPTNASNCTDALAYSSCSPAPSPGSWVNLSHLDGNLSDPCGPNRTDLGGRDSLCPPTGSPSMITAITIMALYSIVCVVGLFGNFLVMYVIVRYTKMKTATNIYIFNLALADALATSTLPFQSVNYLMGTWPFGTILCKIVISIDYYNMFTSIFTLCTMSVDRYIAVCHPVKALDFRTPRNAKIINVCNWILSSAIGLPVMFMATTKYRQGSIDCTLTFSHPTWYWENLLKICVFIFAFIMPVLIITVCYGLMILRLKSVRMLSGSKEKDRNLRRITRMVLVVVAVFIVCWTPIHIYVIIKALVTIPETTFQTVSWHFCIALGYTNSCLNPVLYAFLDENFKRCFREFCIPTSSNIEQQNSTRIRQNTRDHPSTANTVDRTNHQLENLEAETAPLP
Sequence of κ-receptors (P41145 whole entry): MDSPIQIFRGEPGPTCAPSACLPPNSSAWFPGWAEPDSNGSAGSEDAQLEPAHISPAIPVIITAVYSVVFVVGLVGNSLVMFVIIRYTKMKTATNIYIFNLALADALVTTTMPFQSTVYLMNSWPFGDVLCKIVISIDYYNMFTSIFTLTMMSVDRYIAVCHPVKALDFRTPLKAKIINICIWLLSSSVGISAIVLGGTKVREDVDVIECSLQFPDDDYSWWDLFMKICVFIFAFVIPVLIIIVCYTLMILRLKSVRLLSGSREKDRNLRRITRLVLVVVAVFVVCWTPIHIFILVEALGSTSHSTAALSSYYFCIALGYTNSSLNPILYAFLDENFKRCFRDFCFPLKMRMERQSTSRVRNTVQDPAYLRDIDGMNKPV
Sequence of δ-receptors (P41143 whole entry): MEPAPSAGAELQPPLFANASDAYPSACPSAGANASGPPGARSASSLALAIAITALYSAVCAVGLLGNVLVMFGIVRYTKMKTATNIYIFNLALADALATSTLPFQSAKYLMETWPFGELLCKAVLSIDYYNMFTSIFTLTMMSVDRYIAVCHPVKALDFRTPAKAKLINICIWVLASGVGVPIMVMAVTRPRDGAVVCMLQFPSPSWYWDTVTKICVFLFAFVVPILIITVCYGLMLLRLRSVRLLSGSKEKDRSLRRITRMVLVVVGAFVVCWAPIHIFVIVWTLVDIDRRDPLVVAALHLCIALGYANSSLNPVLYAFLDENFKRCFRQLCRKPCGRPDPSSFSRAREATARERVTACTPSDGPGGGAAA
Sequence of mouse recombinant DOR-1 receptor (P32300 whole entry): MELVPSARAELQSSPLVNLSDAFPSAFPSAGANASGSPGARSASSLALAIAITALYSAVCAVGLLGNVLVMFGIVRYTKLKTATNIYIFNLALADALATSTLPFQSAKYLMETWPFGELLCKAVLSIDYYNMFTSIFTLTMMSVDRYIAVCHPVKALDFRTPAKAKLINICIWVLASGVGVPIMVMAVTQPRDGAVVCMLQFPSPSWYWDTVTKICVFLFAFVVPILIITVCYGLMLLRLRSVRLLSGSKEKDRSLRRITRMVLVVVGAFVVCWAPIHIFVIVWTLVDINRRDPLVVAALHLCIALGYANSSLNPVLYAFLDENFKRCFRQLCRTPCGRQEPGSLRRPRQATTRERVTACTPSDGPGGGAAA

CC(=O)Oc1ccc2c3c1O[C@H]1[C@@H](OC(C)=O)C=C[C@H]4[C@@H](C2)N(C)CC[C@@]341 [heroin]
antinociception [1, 11]: still produce antinociception | antinociception ([1]; mice of the CXBX strain): potently antinociceptive

C=CCN1CC[C@]23c4c5ccc(O)c4O[C@H]2/C(=N\N)CC[C@@]3(O)[C@H]1C5 [naloxazone]
induction of morphine dependence [2]: did not block | morphine-induced antinociception [2]: selectively blocked | morphine-induced respiratory depression [2]: did not block

β-endorphin: endogenous opioid peptide from pro-opiomelanocortin, SEQ ID NO: 129
affinity for μ-receptors [3]: equiactive at μ- and δ-receptors | affinity for δ-receptors [4]: equiactive at μ- and δ-receptors | affinity for κ-receptors [5]: much lower affinity

CCCCC[C@H](O)/C=C/[C@H]1[C@H](O)CC(=O)[C@@H]1C/C=C\CCCC(=O)O [PGE2, prostaglandin E2]
increase in the number of cells expressing alkaline phosphatase ([6]; BMP-2 plus PGE2 (10^-8M), 4 days, versus BMP-2): approximately 5 fold | conversion of differentiating C2C12 cells to an osteoblastic phenotype ([6]; under the stimulus of BMP-2): acceleration of their conversion to an osteoblastic phenotype | chondrogenesis [7]: enhances chondrogenesis | chondrogenesis ([7]; in the presence of indomethacin): stimulates chondrogenesis | growth plate and limb growth [8]: thinner growth plate with decreased size of hypertrophic chondrocytes and reduced limb growth

CN1CC[C@]23c4c5ccc(O)c4O[C@H]2[C@@H](O[C@@H]2O[C@H](C(=O)O)[C@@H](O)[C@H](O)[C@H]2O)C=C[C@H]3[C@H]1C5 [morphine-6b-glucuronide]
antinociception [1, 11]: still produce antinociception | antinociception ([1]; mice of the CXBX strain): potently antinociceptive

Oc1ccc2c3c1O[C@H]1c4oc5ccccc5c4C[C@@]4(O)[C@@H](C2)N(CC2CC2)CC[C@]314 [naltriben, Naltriben]
displacement of [3H]-diprenorphine binding [9]: more highly displaced by naltriben than BNTX

COc1ccc2c(c1)c(CC(=O)O)c(C)n2C(=O)c1ccc(Cl)cc1 [indomethacin]
chondrogenesis [7]: inhibit chondrogenesis

CN1CC[C@]23c4c5ccc(O)c4O[C@H]2[C@@H](O)C=C[C@H]3[C@H]1C5 [morphine]
antinociception [1, 11]: not | antinociception ([1]; mice of the CXBX strain): poor antinociceptive agent

B1: IL-1β: murine interleukin-1β cytokine injected into the cisterna magna (protein, UniProt P10749 118-269, looked up)
Interleukin-1 beta: VPIRQLHYRLRDEQQKSLVLSDPYELKALHLNGQNINQQVIFSMSFVQGEPSNDKIPVALGLKGKNLYLSCVMKDGTPTLQLESVDPKQYPKKKMEKRFVFNKIEVKSKVEFESAEFPNWYISTSQAEHKPVFLGNNSGQDIIDFTMESVSS
expression of CGRP in the descending trigeminal nucleus (medullary dorsal horn) [10]: induced | expression of GFAP in the descending trigeminal nucleus (medullary dorsal horn) [10]: induced
